What all share (type): in vivo
One assay relates to Puccinia recondita. Put plainly: Curative activity against brown rust of wheat caused by Puccinia recondita. Particulars: single active compound, wheat seedlings, sprayed 1 day after inoculation, read after 7 days, efficacy in % of untreated control (Abbot). The protocol:
The active compounds, separately or jointly, were prepared as a stock solution comprising 25 mg of active compound which was made up to 10 ml using a mixture of acetone and/or dimethyl sulfoxide and the emulsifier Uniperol® EL (wetting agent having an emulsifying and dispersing action based on ethoxylated alkylphenols) in a ratio by volume of solvent/emulsifier of 99:1. The mixture was then made up to 100 ml with water. This stock solution was diluted with the solvent/emulsifier/water mixture described to give the concentration of active compound stated below. Alternatively, the active compounds triticonazole and pyraclostrobin were used as a commercial finished formulation and diluted with water to the stated active compound concentrations. The visually determined percentages of infected leaf areas were converted into efficacies in % of the untreated control: The efficacy (E) is calculated as follows using Abbot's formula: E=(1−α/β)·100 α corresponds to the fungicidal infection of the treated plants in % and β corresponds to the fungicidal infection of the untreated (control) plants in % An efficacy of 0 means that the infection level of the treated plants corresponds to that of the untreated control plants; an efficacy of 100 means that the treated plants were not infected. The expected efficacies of active compound combinations were determined using Colby's formula (Colby, S. R. “Calculating synergistic and antagonistic responses of herbicide combinations”, Weeds, 15, pp. 20-22, 1967) and compared with the observed efficacies. E=x+y−x·y/100 Colby's formula • E expected efficacy, expressed in % of the untreated control, when using the mixture of the active compounds A and B at the concentrations a and b; • x efficacy, expressed in % of the untreated control, when using the active compound A at the concentration a; • y efficacy, expressed in % of the untreated control, when using the active compound B at the concentration b. […] The extent of the rust fungus development on the leaves was then determined.

Another assay relates to Botrytis cinerea. The assay is described as follows: Activity against gray mold on bell pepper leaves caused by Botrytis cinerea, 1 day protective application. Particulars: single active compound, assessed after 5 days. The protocol:
The active compounds, separately or jointly, were prepared as a stock solution comprising 25 mg of active compound which was made up to 10 ml using a mixture of acetone and/or dimethyl sulfoxide and the emulsifier Uniperol® EL (wetting agent having an emulsifying and dispersing action based on ethoxylated alkylphenols) in a ratio by volume of solvent/emulsifier of 99:1. The mixture was then made up to 100 ml with water. This stock solution was diluted with the solvent/emulsifier/water mixture described to give the concentration of active compound stated below. Alternatively, the active compounds triticonazole and pyraclostrobin were used as a commercial finished formulation and diluted with water to the stated active compound concentrations. The visually determined percentages of infected leaf areas were converted into efficacies in % of the untreated control: The efficacy (E) is calculated as follows using Abbot's formula: E=(1−α/β)·100 α corresponds to the fungicidal infection of the treated plants in % and β corresponds to the fungicidal infection of the untreated (control) plants in % An efficacy of 0 means that the infection level of the treated plants corresponds to that of the untreated control plants; an efficacy of 100 means that the treated plants were not infected. The expected efficacies of active compound combinations were determined using Colby's formula (Colby, S. R. “Calculating synergistic and antagonistic responses of herbicide combinations”, Weeds, 15, pp. 20-22, 1967) and compared with the observed efficacies. E=x+y−x·y/100 Colby's formula • E expected efficacy, expressed in % of the untreated control, when using the mixture of the active compounds A and B at the concentrations a and b; • x efficacy, expressed in % of the untreated control, when using the active compound A at the concentration a; • y efficacy, expressed in % of the untreated control, when using the active compound B at the concentration b. […] After 5 days, the extent of the fungal infection on the leaves could be determined visually in %.

A further assay relates to Alternaria solani. Put plainly: Activity against early blight of tomato caused by Alternaria solani (protective spray, potted tomato plants). Particulars: single active compound, 16 mg/l; tomato leaves, sprayed 1 day before infection, read after 5 days; efficacy in % of untreated control (Abbot). The protocol:
The active compounds, separately or jointly, were prepared as a stock solution comprising 25 mg of active compound which was made up to 10 ml using a mixture of acetone and/or dimethyl sulfoxide and the emulsifier Uniperol® EL (wetting agent having an emulsifying and dispersing action based on ethoxylated alkylphenols) in a ratio by volume of solvent/emulsifier of 99:1. The mixture was then made up to 100 ml with water. This stock solution was diluted with the solvent/emulsifier/water mixture described to give the concentration of active compound stated below. […] The visually determined percentages of infected leaf areas were converted into efficacies in % of the untreated control: The efficacy (E) is calculated as follows using Abbot's formula: E=(1−α/β)·100 α corresponds to the fungicidal infection of the treated plants in % and β corresponds to the fungicidal infection of the untreated (control) plants in % An efficacy of 0 means that the infection level of the treated plants corresponds to that of the untreated control plants; an efficacy of 100 means that the treated plants were not infected. The expected efficacies of active compound combinations were determined using Colby's formula (Colby, S. R. “Calculating synergistic and antagonistic responses of herbicide combinations”, Weeds, 15, pp. 20-22, 1967) and compared with the observed efficacies. […]

For `COc1ccc(C(=CC(=O)N2CCOCC2)c2ccc(Cl)cc2)cc1OC` [Dimethomorph, 3-(4-chlorophenyl)-3-(3,4-dimethoxyphenyl)-1-morpholin-4-yl-propenone], the “Observed activity (% infection)” value with Puccinia recondita (63 mg/l) and with Botrytis cinerea (63 mg/l) was 0% throughout.
In the case of `COc1cc(C)c(C(=O)c2c(OC)ccc(Br)c2C)c(OC)c1OC` [Metrafenone, 3′-bromo-2,3,4,6′-tetramethoxy-2′,6-dimethylbenzophenone], the “Observed activity (% infection)” value with Puccinia recondita (63 mg/l) and in the assay on Botrytis cinerea (63 mg/l) was 0% in each case.
As to `CC1(C)CC/C(=C\c2ccc(Cl)cc2)C1(O)Cn1cncn1` (stereo not shown) [Triticonazole, (5E)-5-[(4-chlorophenyl)methylene]-2,2-dimethyl-1-(1H-1,2,4-triazol-1-ylmethyl)cyclopentanol], the “Observed activity (% infection)” value in the assay on Puccinia recondita (0.25 mg/l) came to 0%. In addition, the “Observed efficacy (% of untreated control, Abbott)” value with Alternaria solani is reported as 20%.
As for `COC(=O)N(OC)c1ccccc1COc1ccn(-c2ccc(Cl)cc2)n1` [pyraclostrobin], the “Observed activity (% infection)” value in the assay with Botrytis cinerea (16 mg/l) is 11%.

For the origin of these results see US20080255107A1, “Fungicidal Mixtures Comprising N-[2-(Haloalk(Enyl)Oxy)Phenyl]Carboxamides” (BASF SE, priority 2005, published 2008).
